Results on 55 compounds are retold here after patent US20260234144A1 (TAY THERAPEUTICS LIMITED, priority 2023, published 2026).

Some results are limits rather than exact numbers.

This assay deals with R223X stop codon in the mutated luciferase gene, ADXC8 luciferase reporter cell line. The experiment in a line: cells. The assay is classed as cell-based. As to conditions: ADXC8 cells, 24 hours; for EC (100% of 200 uM G418 response) / Emax: 24 h; for EC (100% of 200 uM G418 response): read-out: pC100%, negative logarithm of the concentration giving the same response as 200 μM G418; for Emax: read-out: Fold Over Control, maximum fold response relative to 200 μM G418; for Fold Over Control: maximum fold response relative to 200 μM G418; for pC100%: negative logarithm of the concentration giving the same response as 200 μM G418.

Regarding `CSc1ccccc1-c1ccc2c(N)nc(NC3CCN(C)CC3)nc2n1` [Example 82], the EC (100% of 200 uM G418 response) lay within 1 to 10 µM.
Turning to `Cc1cc(C)c2c(NC3CC3)nc(N[C@@H]3CCNC3)nc2n1` [Example 332], the Emax was in the range of 100 to 3000% and the EC (100% of 200 uM G418 response) lay within 1 to 10 µM.
For `Cc1cc(C)c2c(N)nc(NCCNCC(F)(F)F)nc2n1` [Example 162] the same measures were 0 to 100% and above 31.6 µM.
`Cc1cc(C)c2c(N)nc(NC[C@H]3CNCCO3)nc2n1` [Example 161]: the Emax was in the range of 100 to 3000% and the EC (100% of 200 uM G418 response) lay within 10 to 100 µM.
As for `CCNc1nc(N[C@H]2CNC[C@@H]2O)nc2nc(C)cc(C)c12` [Example 392], the EC (100% of 200 uM G418 response) lay within 1 to 10 µM.
As to `CNc1nc(N[C@H]2CNC[C@H]2OC)nc2nc(C)cc(C)c12` [Example 370], the Emax is 100 to 3000% and the EC (100% of 200 uM G418 response) lay within 1 to 10 µM.
For `Cc1cc(C)c2c(N)nc(NC3CCN(Cc4ccccc4C(F)(F)F)CC3)nc2n1` [Example 490] the same measures were 100 to 3000% and 10 to 100 µM.
As to `CNc1nc(N[C@H]2CNC[C@@H]2C(F)(F)F)nc2nc(C)cc(C)c12` [Example 417], the EC (100% of 200 uM G418 response) was 1 to 10 µM.
As to `CN(C)Cc1cccc(-c2ccc3c(N)nc(NC4CCN(C)CC4)nc3n2)c1` [Example 76], the Emax is 100 to 3000% and the EC (100% of 200 uM G418 response) lay in the range of 10 to 100 µM.
For `COc1ccnc2nc(NC3CCN(C)CC3)nc(N)c12` [Example 281] the same measures were 100 to 3000% and 10 to 100 µM.
Taken in the same sequence, the figures for `Cc1cc(C)c2c(N)nc(NC3CCN(Cc4cc(C(F)(F)F)ccc4O)CC3)nc2n1` [Example 541] were 0 to 100% and above 31.6 µM.
For `CN1CCC(Nc2nc(N)c3ccc(-c4ccc(C(=O)N(C)C)cc4)nc3n2)CC1` [Example 71] the same measures were 0 to 100% and above 100 µM.
For `Cc1cc(C)c2c(N)nc(NC3CCN(Cc4c(F)cc(C#N)cc4F)CC3)nc2n1` [Example 551], the Emax was in the range of 100 to 3000% and the EC (100% of 200 uM G418 response) fell in the range of 10 to 100 µM.
For `CNc1nc(N[C@H]2CN(C)C[C@@H]2C)nc2nc(C)cc(C)c12` [Example 381] the same measures were 100 to 3000% and 1 to 10 µM.
Taken in the same sequence, the figures for `COCc1ccc2c(N)nc(NC3CCN(C)CC3)nc2n1` [Example 237, 7-(methoxymethyl)-N^2-(1-methylpiperidin-4-yl)pyrido[2,3-d]pyrimidine-2,4-diamine] were 100 to 3000% and 10 to 100 µM.
Turning to `CNc1nc(N[C@H]2CN(C)CC[C@@H]2O)nc2nc(C)cc(C)c12` [Example 609], the EC (100% of 200 uM G418 response) is 1 to 10 µM.
For the compound `Cc1c2c(nc3nc(NC4CCN(Cc5cnccc5O)CC4)nc(N)c13)CCC2` [Example 663], the Emax lay in the range of 100 to 3000% and the EC (100% of 200 uM G418 response) lay in the range of 1 to 10 µM.
As to `Cc1cc(C)c2c(N)nc(NC3CCN(Cc4cccc(O)c4)CC3)nc2n1` [Example 506], the Emax lay within 100 to 3000% and the EC (100% of 200 uM G418 response) fell in the range of 1 to 10 µM.
Turning to `CC(C)c1cnc2nc(NC3CCN(C)CC3)nc(N)c2c1` [Example 276], the Emax is 100 to 3000% and the EC (100% of 200 uM G418 response) was in the range of 10 to 100 µM.
As to `CN1CCC(Nc2nc(N)c3c(N(C)C)ccnc3n2)CC1` [Example 307], the Emax was 0 to 100% and the EC (100% of 200 uM G418 response) was above 100 µM.
With `CNc1nc(NC2CC3CC2CN3C)nc2nc(C)cc(C)c12` (single isomer, unassigned) [Example 432], the “Fold Over Control” value was “## (Fold over Ctrl > 1 ≤ 30)” and the pC100% result is reported as “++ (pC100% > 5.0 ≤ 6.0)”.
Take `Cc1cc(C)c2c(N)nc(NC3CCN(Cc4ccccc4C#N)CC3)nc2n1` [Example 500]: the Emax was in the range of 100 to 3000% and the EC (100% of 200 uM G418 response) lay within 1 to 10 µM.
Taken in the same sequence, the figures for `CNC(=O)CCNc1nc(NC2CCN(C)CC2)nc2nc(C)cc(C)c12` [Example 353] were 0 to 100% and above 31.6 µM.
As for `Cc1nc2nc(NC3CCNCC3)nc(N)c2c2c1CCC2` [Example 556], the Emax is 100 to 3000% and the EC (100% of 200 uM G418 response) is 0.1 to 1 µM.
For `Cc1cc(C)c2c(N)nc(NC3CCN(Cc4cnn(C)c4)CC3)nc2n1` [Example 568] the same measures were 100 to 3000% and 1 to 10 µM.
`Cc1cc(C)c2c(N)nc(NC3CCN(Cc4ccc(C(=O)N(C)C)cc4)CC3)nc2n1` [Example 495]: the Emax lay in the range of 0 to 100% and the EC (100% of 200 uM G418 response) is above 31.6 µM.
Taken in the same sequence, the figures for `CN1CCC(Nc2nc(N)c3cc(C4CCCC4)cnc3n2)CC1` [Example 243, 6-cyclopentyl-N^2-(1-methylpiperidin-4-yl)pyrido[2,3-d]pyrimidine-2,4-diamine] were 100 to 3000% and 10 to 100 µM.
Turning to `CNc1c(C)c(NCCCN(C)C)nc2nc(C)cc(C)c12` [Example 522, N^2-(3-(dimethylamino)propyl)-N^4,3,5,7-tetramethyl-1,8-naphthyridine-2,4-diamine], the Emax is 0 to 100% and the EC (100% of 200 uM G418 response) is above 31.6 µM.
As to `Cc1cc(C)c2c(N)nc(NCCN3CC(F)(F)C3)nc2n1` [Example 169], the Emax lay in the range of 0 to 100% and the EC (100% of 200 uM G418 response) is above 31.6 µM.
Taken in the same sequence, the figures for `Cc1cc(C)c2c(N)nc(NC3COC4(CNC4)C3)nc2n1` (centres unmarked) [Example 210] were 100 to 3000% and 1 to 10 µM.
Take `Cc1cc(C)c2c(N)nc(NC3CCN(Cc4c(Cl)cccc4Cl)CC3)nc2n1` [Example 470]: the Emax lay within 100 to 3000% and the EC (100% of 200 uM G418 response) was in the range of 1 to 10 µM.
In the case of `CN1CCC(Nc2nc(N)c3cc(-c4cncs4)cnc3n2)CC1` [Example 647], the Emax was 100 to 3000% and the EC (100% of 200 uM G418 response) was in the range of 10 to 100 µM.
For `Cc1cc(C)c2c(N)nc(NC3CCN(CC4CC4)CC3)nc2n1` [Example 145] the same measures were 100 to 3000% and 1 to 10 µM.
For `CC(=O)Nc1cnccc1CN1CCC(Nc2nc(N)c3c(C)cc(C)nc3n2)CC1` [Example 560] the same measures were 100 to 3000% and 1 to 10 µM.
Consider `CNc1nc(N[C@@H]2CCCNCC2)nc2nc(C)cc(C)c12` [Example 402], for which the EC (100% of 200 uM G418 response) was in the range of 1 to 10 µM.
Regarding `CNc1nc(NC2CNCC2(F)F)nc2nc(C)cc(C)c12` (single isomer, unassigned) [Example 437], the “Fold Over Control” value is “## (Fold over Ctrl > 1 ≤ 30)” and the pC100% result is reported as “+ (pC100% > 4.0 ≤ 5.0)”.
For `CN1CCC(Nc2nc(N)c3ccc(-c4ccc(CO)cc4)nc3n2)CC1` [Example 94], the Emax was 100 to 3000% and the EC (100% of 200 uM G418 response) was in the range of 10 to 100 µM.
As to `Cc1cc(C)c2c(N)nc(NCCCN(C)c3ccccc3)nc2n1` [Example 147], the Emax is 0 to 100% and the EC (100% of 200 uM G418 response) was above 31.6 µM.
Taken in the same sequence, the figures for `CNc1nc(N[C@H]2CN(C)C[C@H]2C)nc2nc(C)cc(C)c12` [Example 379] were 100 to 3000% and 1 to 10 µM.
In the case of `CNc1nc(NC2C3CNC2C3)nc2nc(C)cc(C)c12` (single isomer, unassigned) [Example 446], the pC100% result is listed as “++ (pC100% > 5.0 ≤ 6.0)”.
For the compound `CN1CCC(Nc2nc(N)c3ccc(N(C)C)nc3n2)CC1` [Example 36, N^7,N^7-dimethyl-N^2-(1-methylpiperidin-4-yl)pyrido[2,3-d]pyrimidine-2,4,7-triamine], the Emax lay within 100 to 3000% and the EC (100% of 200 uM G418 response) lay in the range of 10 to 100 µM.
`[2H]C([2H])([2H])Nc1nc(NC2CCNCC2)nc2nc(C)cc(C)c12` [Example 589]: the EC (100% of 200 uM G418 response) is 1 to 10 µM.
`CN1CCC(Nc2nc(N)c3cc(-c4ncco4)cnc3n2)CC1` [Example 645]: the Emax was 0 to 100% and the EC (100% of 200 uM G418 response) is above 100 µM.
For `Cc1cc(C)c2c(N)nc(NC3CCN(Cc4cc(Cl)ccc4O)CC3)nc2n1` [Example 542] the same measures were 100 to 3000% and 1 to 10 µM.
Taken in the same sequence, the figures for `CN1CCC(Nc2nc(N)c3cccnc3n2)CC1` [Example 1, N^2-(1-methylpiperidin-4-yl)pyrido[2,3-d]pyrimidine-2,4-diamine] were 100 to 3000% and 10 to 100 µM.
Taken in the same sequence, the figures for `CN1CCC(Nc2nc(N)c3ccc(-c4cccc(N(C)C)c4)nc3n2)CC1` [Example 52] were 100 to 3000% and 1 to 10 µM.
For `CCN1CCC(Nc2nc(N)c3c(C)cc(C)nc3n2)CC1` [Example 213], the Emax lay within 100 to 3000% and the EC (100% of 200 uM G418 response) was in the range of 1 to 10 µM.
In the case of `Cc1cc(C2CC2)nc2nc(NC3CCN(C)CC3)nc(N)c12` [Example 601], the EC (100% of 200 uM G418 response) is 1 to 10 µM.
For the compound `Cc1c2c(nc3nc(NC4CCN(Cc5cccc(B(O)O)c5)CC4)nc(N)c13)CCC2` [Example 669], the Emax is 100 to 3000% and the EC (100% of 200 uM G418 response) lay within 1 to 10 µM.
For `CN1CCC(Nc2nc(N)c3ccc(-c4cnccn4)nc3n2)CC1` [Example 117] the same measures were 0 to 100% and above 100 µM.
`CN1CCC(Nc2nc(N)c3ccc(-c4ccn(C)n4)nc3n2)CC1` [Example 79]: the Emax lay in the range of 0 to 100% and the EC (100% of 200 uM G418 response) was above 100 µM.
Regarding `CN1CCC(Nc2nc(N)c3ccc(-c4cccc(C(=O)O)c4)nc3n2)CC1` [Example 83], the Emax was 0 to 100% and the EC (100% of 200 uM G418 response) was above 100 µM.
For `Cc1c2c(nc3nc(NC4CCN(Cc5ccc(C#N)cc5)CC4)nc(NCCO)c13)CCC2` [Example 555] the same measures were 100 to 3000% and 0.1 to 1 µM.
Taken in the same sequence, the figures for `CNc1nc(N[C@H]2CCCN(C)CC2)nc2nc(C)cc(C)c12` [Example 386] were 100 to 3000% and 1 to 10 µM.
In the case of `CSc1ccc(-c2ccc3c(N)nc(NC4CCN(C)CC4)nc3n2)cc1` [Example 103], the EC (100% of 200 uM G418 response) fell in the range of 1 to 10 µM.
